Data on 54 molecules can be found in patent US8501446B2 (Vertex Pharmaceuticals Incorporated, priority 2004, dated 2013).

One assay concerns the target T1, ROCK I (AA 6-553) (Homo sapiens, UniProt Q13464).
T1 construct: ROCK I (AA 6-553)
The assay is described as follows: ROCK inhibition assay, standard coupled enzyme system ("Enzyme"). Format: biochemical. As to conditions: enzyme-linked assay. On the procedure:
Compounds were screened for their ability to inhibit ROCK I (AA 6-553) activity using a standard coupled enzyme system (Fox et al. (1998) Protein Sci. 7, 2249). Reactions were carried out in a solution containing 100 mM HEPES (pH 7.5), 10 mM MgCl2, 25 mM NaCl, 2 mM DTT and 1.5% DMSO. Final substrate concentrations in the assay were 45 μM ATP (Sigma Chemicals, St Louis, Mo.) and 200 μM peptide (American Peptide, Sunnyvale, Calif.). Reactions were carried out at 30° C. and 45 nM ROCK L. Final concentrations of the components of the coupled enzyme system were 2.5 mM phosphoenolpyruvate, 350 μM NADH, 30 μg/ml pyruvate kinase and 10 μg/ml lactate dehydrogenase.

For assay [1], the target named is T2, full length Aurora-A (AA 1-403) (Homo sapiens, UniProt O14965).
T2 construct: full length Aurora-A (AA 1-403)
T2 sequence (O14965 1-403): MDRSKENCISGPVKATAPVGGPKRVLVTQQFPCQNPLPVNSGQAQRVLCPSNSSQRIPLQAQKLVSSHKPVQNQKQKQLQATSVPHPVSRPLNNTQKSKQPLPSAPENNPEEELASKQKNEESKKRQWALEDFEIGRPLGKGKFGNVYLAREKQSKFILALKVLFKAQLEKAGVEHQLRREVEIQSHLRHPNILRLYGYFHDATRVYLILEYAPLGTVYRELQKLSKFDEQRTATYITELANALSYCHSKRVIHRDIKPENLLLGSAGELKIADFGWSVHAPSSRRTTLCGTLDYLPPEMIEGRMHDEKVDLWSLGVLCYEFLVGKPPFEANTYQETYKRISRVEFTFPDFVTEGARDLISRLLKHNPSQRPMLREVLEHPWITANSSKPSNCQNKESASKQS
The assay is described as follows: Aurora-A inhibition assay, standard coupled enzyme system. In kind it is biochemical. The settings on record: average Ki if more than one value determined. On the procedure: Compounds were screened for their ability to inhibit full length Aurora-A (AA 1-403) activity using a standard coupled enzyme system (Fox et al., Protein Sci. 7, pp. 2249 (1998)). Reactions were carried out in a solution containing 100 mM HEPES (pH 7.5), 10 mM MgCl2, 25 mM NaCl, 300 μM NADH, 1 mM DTT and 3% DMSO. Final substrate concentrations in the assay were 200 μM ATP (Sigma Chemicals, St Louis, Mo.) and 800 μM peptide (LRRASLG, American Peptide, Sunnyvale, Calif.). Reactions were carried out at 30° C. and 35 nM Aurora-A. Final concentrations of the components of the coupled enzyme system were 2.5 mM phosphoenolpyruvate, 200 μM NADH, 60 μg/ml pyruvate kinase and 20 μg/ml lactate dehydrogenase.
An assay stock buffer solution was prepared containing all of the reagents listed above with the exception of ATP and the test compound of interest. The assay stock buffer solution (60 μl) was incubated in a 96 well plate with 2 μl of the test compound of interest at final concentrations spanning 0.002 μM to 30 μM at 30° C. for 10 min. Typically, a 12 point titration was conducted by preparing serial dilutions (from 1 mM compound stocks) with DMSO of the test compounds in daughter plates. The reaction was initiated by the addition of 5 μl of ATP (final concentration 200 μM). Rates of reaction were obtained using a Molecular Devices Spectramax plate reader (Sunnyvale, Calif.) over 10 min at 30° C. The Ki values were determined from the rate data as a function of inhibitor concentration using computerized nonlinear regression (Prism 3.0, Graphpad Software, San Diego, Calif.). Aurora-C activity was screened in a similar manner using Aurora-C protein. Aurora-B activity was screened using a radioactive assay, such as described in Examples 1 and 2, but using Aurora-B protein.

T1 sequence (Q13464 6-553, species assumed): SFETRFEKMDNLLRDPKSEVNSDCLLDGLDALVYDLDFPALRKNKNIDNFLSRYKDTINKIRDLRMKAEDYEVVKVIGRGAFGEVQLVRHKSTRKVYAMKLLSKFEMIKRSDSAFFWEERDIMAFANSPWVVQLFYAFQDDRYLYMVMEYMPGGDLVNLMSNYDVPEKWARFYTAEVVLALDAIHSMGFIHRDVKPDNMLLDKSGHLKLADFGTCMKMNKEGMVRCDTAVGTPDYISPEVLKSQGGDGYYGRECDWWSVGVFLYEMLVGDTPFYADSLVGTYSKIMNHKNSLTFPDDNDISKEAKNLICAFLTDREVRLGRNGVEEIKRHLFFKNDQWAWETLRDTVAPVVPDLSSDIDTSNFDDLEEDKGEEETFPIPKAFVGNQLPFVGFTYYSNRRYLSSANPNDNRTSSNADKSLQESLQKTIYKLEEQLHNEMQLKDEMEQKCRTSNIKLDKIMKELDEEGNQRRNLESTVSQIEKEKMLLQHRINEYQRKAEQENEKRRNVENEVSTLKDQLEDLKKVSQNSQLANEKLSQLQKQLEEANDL

In general, Ki refers to the equilibrium dissociation constant of an inhibitor or competing ligand from its target. As for `C[C@H](Nc1nc(-c2c[nH]c3ncc(Cl)cc23)ncc1F)C(=O)NC1CC1` [Compound 338], the Ki at ROCK I (AA 6-553) is 0.5 to 5 µM; in assay [1], less than 0.5 µM.

On to `CC(C)(C)OC(=O)N1CCN(c2cccc(-c3c[nH]c4ncc(Cl)cc34)n2)CC1` [Compound 257], for which the Ki (at ROCK I (AA 6-553); in assay [1]) was 0.5 to 5 µM in each case.

For the molecule `C[C@H](Nc1nc(-c2c[nH]c3ncc(Cl)cc23)ncc1F)C(=O)NCCC(=O)O` [Compound 466], the Ki in assay [1] was in the range of 0.5 to 5 µM.

Turning to `C[C@H](Nc1nc(-c2c[nH]c3ncc(C(=O)O)cc23)ncc1F)c1ccc(F)cc1` [Compound 350], in assay [1], the inhibition constant Ki lay within 0.5 to 5 µM.

In the case of `NC(=O)c1ccc(-c2c[nH]c3ncc(CCc4ccccc4)cc23)cc1` [Compound 303], the inhibition constant Ki on ROCK I (AA 6-553) was less than 0.5 µM.

Take `CC(Nc1nc(-c2c[nH]c3ncc(Cl)cc23)ncc1F)c1ccc(Cl)cc1` (stereo not drawn) [Compound 311]: the Ki was 0.5 to 5 µM at ROCK I (AA 6-553) and less than 0.5 µM in assay [1].

`CC(C)Oc1cnc(-c2c[nH]c3ncc(Cl)cc23)nc1N[C@@H](C)C(=O)NCC(F)(F)F` [Compound 410]: the inhibitory constant (Ki) at ROCK I (AA 6-553) was 0.5 to 5 µM; in assay [1], less than 0.5 µM.

As to `CN(C)c1cccc(-c2c[nH]c3ncc(-c4ccccc4)cc23)n1` [Compound 253], the inhibition constant Ki (at ROCK I (AA 6-553); in assay [1]) was less than 0.5 µM in each case.

Consider `COC(=O)c1cnc2[nH]cc(-c3ncc(F)c(N[C@@H](C)c4ccc(F)cc4)n3)c2c1` [Compound 307], for which the inhibition constant (Ki) (at ROCK I (AA 6-553); in assay [1]) was less than 0.5 µM in each case.

With `Clc1cnc2[nH]cc(-c3cccc(Nc4ccccc4)n3)c2c1` [Compound 243], the Ki at ROCK I (AA 6-553) is 0.5 to 5 µM; in assay [1], less than 0.5 µM.

As to `O=C(Nc1cccc(-c2c[nH]c3ncc(Cl)cc23)n1)c1ccccc1Cl` [Compound 281], the Ki in assay [1] is less than 0.5 µM.

Consider `CC(=O)c1ccc(-c2c[nH]c3ncc(-c4ccccc4)cc23)cc1` [Compound 231], for which the Ki (at ROCK I (AA 6-553); in assay [1]) was less than 0.5 µM in each case.

`CC[C@H](C)NC(=O)[C@H](C)Nc1nc(-c2c[nH]c3ncc(Cl)cc23)ncc1F` [Compound 465] yielded a Ki in assay [1] of less than 0.5 µM.

As to `NCCC[C@H](Nc1nc(-c2c[nH]c3ncc(Cl)cc23)ncc1F)C(=O)O` [Compound 403], in assay [1], the Ki was in the range of 0.5 to 5 µM.

As to `C[C@H](Nc1nc(-c2c[nH]c3ncc(Cl)cc23)ncc1F)C(=O)OC(C)(C)C` [Compound 351], the Ki at ROCK I (AA 6-553) is 0.5 to 5 µM; in assay [1] it was less than 0.5 µM.

Turning to `CNC(=O)COc1cccc([C@H](C)Nc2nc(-c3c[nH]c4ncc(Cl)cc34)ncc2F)c1` [Compound 376], the Ki on ROCK I (AA 6-553) was 0.5 to 5 µM; in assay [1], less than 0.5 µM.

As for `NC(=O)c1ccc(-c2c[nH]c3ncc(-c4ccsc4)cc23)cc1` [Compound 236], the Ki in assay [1] is less than 0.5 µM.

For the molecule `OCCNc1cccc(-c2c[nH]c3ncc(-c4ccccc4)cc23)n1` [Compound 277], the Ki (at ROCK I (AA 6-553); in assay [1]) was less than 0.5 µM throughout.

For the molecule `Fc1cnc(-c2c[nH]c3ncc(Cl)cc23)nc1N[C@@H]1CCNC1` [Compound 381], the Ki (on ROCK I (AA 6-553); in assay [1]) was less than 0.5 µM throughout.

On to `N#Cc1cc(-c2c[nH]c3ncc(Cl)cc23)nc(N2CCNCC2)c1` [Compound 399], for which the Ki (at ROCK I (AA 6-553); in assay [1]) was less than 0.5 µM throughout.

Consider `Fc1cnc(-c2c[nH]c3ncc(Cl)cc23)nc1NC1CCNC1` (stereo not drawn) [Compound 344], for which the Ki (at ROCK I (AA 6-553); in assay [1]) was less than 0.5 µM throughout.

Consider `c1ccc(Nc2cccc(-c3c[nH]c4ncc(-c5ccccc5)cc34)n2)cc1` [Compound 265], for which the Ki was 0.5 to 5 µM on ROCK I (AA 6-553) and less than 0.5 µM in assay [1].

In assay [1], `O=C(Nc1cccc(-c2c[nH]c3ncc(Cl)cc23)n1)c1cccc(Cl)c1` [Compound 282] gave a Ki of less than 0.5 µM.

`Fc1cnc(-c2c[nH]c3ncc(Cl)cc23)nc1OCc1ccc(Cl)cc1` [Compound 314] returned an inhibition constant Ki in assay [1] of 0.5 to 5 µM.

In turn, `CNS(=O)(=O)c1ccc(-c2c[nH]c3ncc(-c4ccccc4)cc23)cc1` [Compound 233] had an inhibitory constant (Ki) at ROCK I (AA 6-553) of 0.5 to 5 µM.

`O=C(Cc1ccccc1)Nc1cccc(-c2c[nH]c3ncc(Cl)cc23)n1` [Compound 280] returned a Ki in assay [1] of less than 0.5 µM.

For `CCNC(=O)c1cccc(-c2c[nH]c3ncc(-c4cc(Cl)cc(Cl)c4)cc23)c1` [Compound 226], in assay [1], the Ki is 0.5 to 5 µM.

In assay [1], `CC(C)NS(=O)(=O)CCNC(=O)[C@H](C)Nc1nc(-c2c[nH]c3ncc(Cl)cc23)ncc1F` [Compound 469] registered a Ki of less than 0.5 µM.

For the molecule `OCc1cc(-c2c[nH]c3ncc(Cl)cc23)nc(N2CCNCC2)c1` [Compound 405], the Ki in assay [1] is less than 0.5 µM.

The molecule `Nc1nc(-c2c[nH]c3ncc(Cl)cc23)ncc1F` [Compound 332] registered a Ki in assay [1] of less than 0.5 µM.

As to `C[C@H](Nc1nc(-c2c[nH]c3ncc(C(=O)N(C)C)cc23)ncc1F)c1ccc(F)cc1` [Compound 346], the Ki in assay [1] was 0.5 to 5 µM.

Molecule `Clc1cnc2[nH]cc(-c3ncccn3)c2c1` [Compound 319] registered an inhibition constant (Ki) in assay [1] of 0.5 to 5 µM.

`CC(=O)Nc1cccc(-c2c[nH]c3ncc(Cl)cc23)n1` [Compound 283] gave a Ki in assay [1] of 0.5 to 5 µM.

Molecule `Clc1cnc2[nH]cc(-c3cccc(N4CCCC4)n3)c2c1` [Compound 241] returned a Ki in assay [1] of 0.5 to 5 µM.

`CC(C)CCNC(=O)[C@H](C)Nc1nc(-c2c[nH]c3ncc(Cl)cc23)ncc1F` [Compound 464] registered a Ki in assay [1] of 0.5 to 5 µM.

Consider `C[C@H](Nc1nc(-c2c[nH]c3ncc(Cl)cc23)ncc1F)c1cccc(OCCN(C)C)c1` [Compound 320], for which the Ki in assay [1] is less than 0.5 µM.

Molecule `CCOC(=O)Nc1cnc2[nH]cc(-c3ncc(F)c(N[C@@H](C)c4ccc(F)cc4)n3)c2c1` [Compound 358] had an inhibition constant (Ki) in assay [1] of 0.5 to 5 µM.

Turning to `NC(=O)c1ccc(-c2c[nH]c3ncc(Sc4ccccc4)cc23)cc1` [Compound 304], the Ki on ROCK I (AA 6-553) lay within 0.5 to 5 µM.

On to `C#Cc1cc(-c2c[nH]c3ncc(Cl)cc23)nc(N2CCNCC2)c1` [Compound 412], for which, in assay [1], the Ki was less than 0.5 µM.

Turning to `c1ccc(-c2cnc3[nH]cc(-c4cccc(NC5CCCCC5)n4)c3c2)cc1` [Compound 287], the Ki in assay [1] was less than 0.5 µM.

As for `C[C@H](Nc1nc(-c2c[nH]c3ncc(N)cc23)ncc1F)c1ccc(F)cc1` [Compound 343], the Ki in assay [1] was in the range of 0.5 to 5 µM.

Take `c1ccc(CNc2cccc(-c3c[nH]c4ncc(-c5ccccc5)cc34)n2)cc1` [Compound 269]: in assay [1], the Ki was less than 0.5 µM.

Turning to `CC(C)(C)OC(=O)N(Cc1ccc(S(C)(=O)=O)cc1)c1cccc(-c2c[nH]c3ncc(Cl)cc23)n1` [Compound 245], the Ki in assay [1] is less than 0.5 µM.

For `C[C@H](Nc1nc(-c2c[nH]c3ncc(CO)cc23)ncc1F)c1ccc(F)cc1` [Compound 334], the Ki in assay [1] was less than 0.5 µM.

Turning to `O=C(Nc1cccc(-c2c[nH]c3ncc(Cl)cc23)n1)C1CCCCC1` [Compound 288], the inhibitory constant (Ki) in assay [1] was less than 0.5 µM.

`Nc1cccc(-c2c[nH]c3ncc(-c4ccccc4)cc23)n1` [Compound 268] registered a Ki in assay [1] of 0.5 to 5 µM.

`CC(C)C(=O)Nc1cccc(-c2c[nH]c3ncc(Cl)cc23)n1` [Compound 279] registered a Ki in assay [1] of 0.5 to 5 µM.

`CNc1cccc(-c2c[nH]c3ncccc23)n1` [Compound 272] came in with a Ki in assay [1] of 0.5 to 5 µM.

For `N#Cc1ccnc(-c2c[nH]c3ncc(Cl)cc23)c1` [Compound 353], on ROCK I (AA 6-553), the Ki was in the range of 0.5 to 5 µM.

On to `CNC(=O)CCNC(=O)[C@H](C)Nc1nc(-c2c[nH]c3ncc(Cl)cc23)ncc1F` [Compound 467], for which the Ki in assay [1] was less than 0.5 µM.

For the molecule `C[Si](C)(C)c1[nH]c2ncc(-c3ccccc3)cc2c1-c1ccccc1` [Compound 210], the Ki in assay [1] was in the range of 0.5 to 5 µM.

In the case of `CC(C)NC(=O)CCNC(=O)[C@H](C)Nc1nc(-c2c[nH]c3ncc(Cl)cc23)ncc1F` [Compound 468], the Ki in assay [1] was less than 0.5 µM.

In assay [1], `CN1CCC(Nc2nc(-c3c[nH]c4ncc(Cl)cc34)ncc2F)C1` (stereo not drawn) [Compound 352] came in with a Ki of less than 0.5 µM.

In assay [1], `CS(=O)(=O)Nc1ccc(-c2c[nH]c3ncc(-c4ccccc4)cc23)cc1` [Compound 234] yielded a Ki of less than 0.5 µM.
